Entries after “also recorded” stand apart in the source; their conditions may differ. Marks after values point to notes of the source that are not given here.
Tests used:
[1] = NHC-mediated reaction with α-keto aldehyde phenylglyoxal (16), Method B; assay type: biochemical; details: isolated yield with respect to 2
Procedure: (§1) 60 mM solution of dicarbonyl substrate (45 μmol) in MeCN (0.75 ml) was added to 20 mM solution of NHC (15 μmol) in 0.15 M pH 7.4 sodium phosphate buffer (0.75 ml) and kept stirred at 37° C. At stated times, 75 μl aliquots were taken, diluted with 50% MeCN/H2O (425 μl) and analyzed by LCMS with 2,4-dihydroxyquinoline (248 μM) as an internal standard. The cleavage products were quantified by peak integration against the calibration curves.
Phenylglyoxal hydrate (16; 114 mg, 0.75 mmol, 2 eq) was added to a solution of ALT-711 (2; 100 mg, 0.37 mmol) in 50% MeCN/0.15 M pH 7.4 phosphate buffer (total vol. 37 ml) and kept stirred at room temperature for 15 mins. The reaction mixture was cooled to −20° C. to precipitate out sodium phosphate as white crystals. The supernatant was transferred, and the residue was washed with MeCN and combined with the supernatant. This yellow clear solution was concentrated at room temperature to remove MeCN and purified by HPLC (16-27MeCN over 31 min). […]
(§2) Reactions involving α-keto aldehyde derivatives 16 and 17 followed an unexpected course. Treatment of these substrates with 2 led to instantaneous, high-yield production of a diastercomeric mixture of cycloadducts (19 and 20) that decompose to complex mixtures under the reaction conditions with half-lives of approximately 3 h Structures were determined based on in-depth NMR analysis (see Supplementary Material).

[2] = tested on: HOD alloantigen on stored RBCs; test: Immunogenicity of stored blood upon transfusion (anti-HOD IgG ELISA); assay type: in vivo, mouse; details: blood stored 14 days, transfused into B6 mice, 14 days following transfusion
Procedure: (§3) Leuko-reduced mouse blood was stored under typical storage conditions for up to 14 days, in either OCR6043, control compound, or without any treatment. FIG. 2A illustrates an analysis of glucose in the serum from the stored blood was evaluated using a glucose oxidase enzymatic assay. […] FIG. 2B illustrates the AGE precursor levels on RBCs were measured using a dicarbonyl-specific fluorophore that was developed in-house. The time dependent increase in the AGE precursor levels was dampened in the presence of OCR6043. FIG. 2C illustrates mouse blood that was stored for 14 days, was evaluated for its immunogenicity upon transfusion, by testing for IgGs against an alloantigen on the RBCs (HOD=HEL-OVA-Duffy).
OCR6043 treatment decreases immunogenicity, and enhances post-transfusion recovery of stored mouse blood. Leukoreduced mouse blood was stored under typical storage conditions for up to 14 days in either OCR6043 or without any treatment. This mouse blood was evaluated for its immunogenicity upon transfusion by testing for IgGs against an alloantigen on the RBCs (HOD=HEL-OVA-Duffy).
As described herein, the stored blood has an HOD marker allowing facile detection after transfusion. We transfused […] of stored blood into B6 mice (not expressing the HOD antigen). […] The anti-HOD IgG response was evaluated using standard ELISA techniques described in Hendrickson et at.

[3] = tested on: AGE precursor (α-dicarbonyl) on RBCs; test: AGE precursor (α-dicarbonyl) levels on stored RBCs (dicarbonyl-specific fluorophore); assay type: cell-based, mouse; details: typical storage conditions, up to 14 days
Procedure: as §3

[4] = various animal studies and clinical trials; cited from earlier work
[5] = NHC-mediated reaction with α-keto aldehyde methylglyoxal (17), Method B; assay type: biochemical; details: isolated yield with respect to 2
Procedure: as §1
Four diastereomers (ALT-MGO-1 through ALT-MGO-4) were obtained with a similar method to ALT-PG using 2 (100 mg, 0.37 mmol) and 40% methylglyoxal (MOO, 17) solution (0.2 ml, 1.3 mmol, 3.5 eq). Purification was performed by HPLC (9-19% MeCN over 32 min), and the lyophilization of fractions afforded the title compounds as white solids (96% combined yield). See Supplementary Material for characterization data.
as §2

circulating stored RBCs = test: Post-transfusion recovery of stored RBCs (flow cytometry); assay type: in vivo, mouse; details: blood stored 14 days; 24 hours after transfusion; listed as OCR6043
Procedure: as §3
Using the transfusion methodology described in Hendrickson et al., it was possible to identify the surviving circulating RBCs using flow cytometry.

[6] = Cleavage of PPD (3) to benzoic acid by NHC precursors, Method B (MeCN co-solvent); assay type: biochemical
Procedure: Dicarbonyl cleavage reactions were performed using either the method described in Vasan et al., An agent cleaving glucose-derived protein crosslinks in vitro and in vivo, Nature (1996) Vol. 382, pp. 275-278 (Method A) or a modified method with MeCN as a co-solvent (Method B).
as §1
Thus, our first goal in these studies was to assess the ability of various NHC precursors to induce the degradation of the dicarbonyl model substrate (PPD, 3). To this end, we screened the thiazolium (4-6), benzothiazolium (7), triazolium (8,9) and imidazolium (10) halide substructures shown in Table 1.

[7] = NHC-mediated cleavage of bis-alkyl diketone 14, Method B; assay type: biochemical; details: LCMS, with respect to dicarbonyl
Procedure: as §1
Our efforts to investigate the scope of thiazolium salt-mediated reactions with dicarbonyls began with bis-alkyl diketone 14 (Table 3, Entry 1). This substrate is cleaved cleanly by 2, and affords acid 18 in 82% yield. NHC precursor 4, on the other hand, provides 18 in only 14% yield (Entry 2). The efficiency of dicarbonyl cleavage reactions decreases substantially in the case of benzil (15, Entry 3), which affords benzoic acid in 14% and 1% yield following exposure to 2 and 4, respectively.

[8] = Stability studies of NHC precursors under the PPD cleavage reaction conditions; assay type: physicochemical; details: exposure to PPD, Method B conditions
Excerpt: Instead, 7 gave rise predominantly to an oxalamide derivative, which is believed to form via dimerization and oxidation of intermediate carbenes. […] Stability studies afforded additional insights.
In cleavage of PPD with ALT-711 (2), we detected several decomposition products of the catalyst that appear to be adducts between 2 and an acetyl group, the remainder of PPD following the release of benzoic acid. One adduct that has been isolated and characterized explains why the concentration of ALT-711 diminishes after cleaving PPD while the benzyl counterpart (4) behaves as a stable catalyst. Instead of liberating acetaldehyde and re-entering the catalytic cycle, oxidation of alcohol 13 to the corresponding methyl ketone followed by an aldol condensation with the phenyl ketone gives rise to a thiazolopyridinium derivative (see Supplementary Material for details).

## Cc1sc[n+](CC(=O)c2ccccc2)c1C.[Cl-] [Compound 2]
[1]
  % Yield of cycloadduct 19 from substrate 16: 55^b %
[2]; listed as ALT-711
  Immunogenicity upon transfusion (IgG against HOD alloantigen): lower immunogenicity
[2]; listed as OCR6043
  Immunogenicity upon transfusion (IgG against HOD alloantigen): decreased immunogenicity; also recorded: attenuated this immune response
[3]
  Time dependent increase in AGE precursor levels on RBCs: dampened
[4]
  Toxicity to animals and humans: non-toxic
[5]
  % Yield of cycloadduct 20 from substrate 17: 96^b %
Circulating stored RBCs
  Cell survival of transfused stored RBCs versus untreated stored blood: two-fold increase; also recorded: twofold increase
[6]; Method B screen of NHC precursors
  Benzoic acid formation from 3 (in words): highest overall yield
[6]; co-solvent MeCN, Method B, LCMS, with respect to dicarbonyl
  Combined % Yield (PhCO2H): 61%
[7]
  % Yield of acid 18 from substrate 14: 82%
[8]
  Stability of NHC precursor under the reaction conditions: disappear from solution

— patent US9622469B2, “Crosslink breakers for preservation of biological substances” (priority 2013, dated 2017)
